Assay results from patent publication US12383526B2, “Optimized sigma-1 agonist method of responder selection and treatment” (ANAVEX LIFE SCIENCES CORP., priority 2018, dated 2025).
Marks after values point to notes of the source that are not given here.

Test system: subjects with mild-to-moderate AD
Assay: ADCS-ADL (Activities of Daily Living) change from baseline, 57-week Phase 2a study and 208-week extension study
Type: in vivo, human
Parameters: key to unadjusted change in ADCS-ADL score, Mean ± Std. Dev: change from baseline on ADCS-ADL scale 0–78, higher = greater function
Settings: for ADCS-ADL Cohen's d: week 57, compared to standard of care
Excerpt: The present study integrates and analyzes data and samples from two consecutive clinical trials: 57-week study and 208-week study. 57-week study was a multicenter Phase 2a clinical trial of the drug ANAVEX2-73 that recruited a sample of 32 subjects with mild-to-moderate AD. It consisted of two parts: Part A was a simple randomized, open-label, two-period, cross-over, adaptive trial lasting up to 5 weeks. Each period involved one specific administration route and two possible dose levels: in one period the oral dose (30 mg or 50 mg) was administrated and in the other period an intravenous (IV) form (3 mg or 5 mg) was administered, making a total of 8 possible dose administration schemes in Part A (details available in FIG. 2A). The two periods were separated by a wash-out period of 12 days where no dose was given.
Part B, following immediately after Part A, was an open-label extension of the oral daily dose for an additional 52 weeks. The primary endpoint of 57-week study was to establish the safety and tolerability of the drug. Secondary endpoints aimed at establishing the relationship between dosing regimen and pharmacodynamics-exploratory efficacy outcomes of cognition and function. Cognition was assessed by the Mini Mental State Examination (MMSE), while functional abilities by the Alzheimer's Disease Co-operative Study—Activities of Daily Living Inventory (ADCS-ADL). Additional cognitive measures included the Cogstate Brief Battery (CBB), and functional measures of Electroencephalography and Event-Related Potential (EEG and ERP). Part B continued an adaptive oral administration scheme. Table 12 summarizes mean oral dose administration during the 57-week study study.
Due to favorable safety and tolerability profile of the 57-week study (Table 2), and in response to requests from patients and caregivers, a 208-week open-label extension study (208-week study) was carried out immediately after completion of 57-week study Part B. 208-week study enrolled the 24 subjects who completed Part B and applied similarly an adaptive daily oral administration scheme. ANAVEX2-73-003 involves continuous evaluation of safety and efficacy as measured by the MMSE and ADCS-ADL. At week 148 (interim time point for analyses), data on the subjects remaining in the study (n=21) was analyzed for efficacy outcomes. This report was drafted using data available at week 148, while ANAVEX2-73-003 is still ongoing.
Exploratory clinical efficacy in this study was defined as change from baseline of each patient's cognitive (MMSE) and functional ability (ADCS-ADL) scores. The MMSE57 is a widely used, validated instrument in clinical AD research, including as a cognitive outcome measure in drug trials. The range of the scale is from 0 to 30, with a higher score indicating higher cognitive function. The ADCS-ADL58 is undertaken in a structured caregiver interview format and assesses performance in activities of daily living of patients with AD. The scale is from 0 to 78, with a higher score indicating greater function. The ADCS-ADL has shown to have good test-retest reliability 59. The MMSE and the ADCS-ADL were assessed during pre-specified clinical site visits across 14 different time points during the 57-week study (Weeks 0 and 5 in Part A; Weeks 17, 31, 41, 53, and 57 in Part B), and 208-week study (Weeks 70, 83, 96, 109, 122, 135, and 148) studies.
Corresponding Delta scores were calculated using the difference between values at each visit and at baseline for each individual patient, with a focus on Week 57. In addition, to lower the impact of noise in MMSE and ADCS-ADL scores, a Slope was estimated using a linear regression across all available time points for each individual patient. The derived scores describe the progression of exploratory efficacy data from baseline at several specific time points (Deltas) and over a set period of time (Slope). […]

SMILES: CN(C)CC1CCOC1(c1ccccc1)c1ccccc1.Cl (centres unmarked) [ANAVEX2-73, tetrahydro-N,N-dimethyl-2,2-diphenyl-3-furanmethanamine hydrochloride]
- unadjusted change in ADCS-ADL score, Mean ± Std. Dev (Group 3 (n 11), Week 70): −5.09 ± 10.70
- unadjusted change in ADCS-ADL score, Mean ± Std. Dev (Group 3 (n 11), Week 83): −5.55 ± 12.65
- unadjusted change in ADCS-ADL score, Mean ± Std. Dev (Group 3 (n 11), Week 96): −8.64 ± 16.10
- unadjusted change in ADCS-ADL score, Mean ± Std. Dev (Group 3 (n 11), Week 109): −9.45 ± 15.13
- unadjusted change in ADCS-ADL score, Mean ± Std. Dev (Group 3 (n 11), Week 122): −9.27 ± 12.17
- unadjusted change in ADCS-ADL score, Mean ± Std. Dev (Group 3 (n 11), Week 135): 11.09 ± 16.16
- unadjusted change in ADCS-ADL score, Mean ± Std. Dev (Group 3 (n 11), Week 148): −14.73 ± 17.70
- unadjusted change in ADCS-ADL score, Mean ± Std. Dev (Group 4 (n 14), Week 148): −19.43 ± 18.50
- unadjusted change in ADCS-ADL score, Mean ± Std. Dev (Group 4 (n 15), Week 109): −12.60 ± 15.00
- unadjusted change in ADCS-ADL score, Mean ± Std. Dev (Group 4 (n 15), Week 122): −15.20 ± 17.30
- unadjusted change in ADCS-ADL score, Mean ± Std. Dev (Group 4 (n 16), Week 0): 0.00 ± 0.00
- unadjusted change in ADCS-ADL score, Mean ± Std. Dev (Group 4 (n 16), Week 5): −1.25 ± 5.54
- unadjusted change in ADCS-ADL score, Mean ± Std. Dev (Group 4 (n 16), Week 17): −0.44 ± 3.42
- unadjusted change in ADCS-ADL score, Mean ± Std. Dev (Group 4 (n 16), Week 31): −2.31 ± 6.00
- unadjusted change in ADCS-ADL score, Mean ± Std. Dev (Group 4 (n 16), Week 41): −3.31 ± 7.03
- unadjusted change in ADCS-ADL score, Mean ± Std. Dev (Group 4 (n 16), Week 53): 3.81 ± 7.24
- unadjusted change in ADCS-ADL score, Mean ± Std. Dev (Group 4 (n 16), Week 57): −3.38 ± 7.60
- unadjusted change in ADCS-ADL score, Mean ± Std. Dev (Group 4 (n 16), Week 70): −6.94 ± 10.87
- unadjusted change in ADCS-ADL score, Mean ± Std. Dev (Group 4 (n 16), Week 96): −13.25 ± 16.77
- unadjusted change in ADCS-ADL score, Mean ± Std. Dev (Group 4 (n 16), Week 135): −19.12 ± 19.67
- unadjusted change in ADCS-ADL score, Mean ± Std. Dev (Group 5 (n 4), Week 5): −3.25 ± 11.30
- unadjusted change in ADCS-ADL score, Mean ± Std. Dev (Group 5 (n 4), Week 31): −8.75 ± 3.30
- unadjusted change in ADCS-ADL score, Mean ± Std. Dev (Group 5 (n 4), Week 122): −27.75 ± 12.26
- unadjusted change in ADCS-ADL score, Mean ± Std. Dev (Group 5 (n 5), Week 0): 0.00 ± 0.00
- unadjusted change in ADCS-ADL score, Mean ± Std. Dev (Group 5 (n 5), Week 17): −4.20 ± 4.09
- unadjusted change in ADCS-ADL score, Mean ± Std. Dev (Group 5 (n 5), Week 41): 6.00 ± 3.00
- unadjusted change in ADCS-ADL score, Mean ± Std. Dev (Group 5 (n 5), Week 53): −10.00 ± 6.78
- unadjusted change in ADCS-ADL score, Mean ± Std. Dev (Group 5 (n 5), Week 57): −11.20 ± 8.93
- unadjusted change in ADCS-ADL score, Mean ± Std. Dev (Group 5 (n 5), Week 70): −14.80 ± 9.63
- unadjusted change in ADCS-ADL score, Mean ± Std. Dev (Group 5 (n 5), Week 83): −13.20 ± 11.52
- unadjusted change in ADCS-ADL score, Mean ± Std. Dev (Group 5 (n 5), Week 96): −18.60 ± 11.67
- unadjusted change in ADCS-ADL score, Mean ± Std. Dev (Group 5 (n 5), Week 109): −19.20 ± 13.31
- unadjusted change in ADCS-ADL score, Mean ± Std. Dev (Group 5 (n 5), Week 135): −24.00 ± 14.65
- unadjusted change in ADCS-ADL score, Mean ± Std. Dev (Group 5 (n 5), Week 148): −26.00 ± 16.17
- unadjusted change in ADCS-ADL score, Mean ± Std. Dev (Group 6 (n 2), Week 5): 0.50 ± 9.19
- unadjusted change in ADCS-ADL score, Mean ± Std. Dev (Group 6 (n 2), Week 31): −10.50 ± 3.54
- unadjusted change in ADCS-ADL score, Mean ± Std. Dev (Group 6 (n 3), Week 0): 0.00 ± 0.00
- unadjusted change in ADCS-ADL score, Mean ± Std. Dev (Group 6 (n 3), Week 17): −5.00 ± 5.20
- unadjusted change in ADCS-ADL score, Mean ± Std. Dev (Group 6 (n 3), Week 41): −6.67 ± 4.04
- unadjusted change in ADCS-ADL score, Mean ± Std. Dev (Group 6 (n 3), Week 53): −12.67 ± 8.02
- unadjusted change in ADCS-ADL score, Mean ± Std. Dev (Group 6 (n 3), Week 57): −14.67 ± 10.50
- unadjusted change in ADCS-ADL score, Mean ± Std. Dev (Group 6 (n 3), Week 70): −18.00 ± 12.12
- unadjusted change in ADCS-ADL score, Mean ± Std. Dev (Group 6 (n 3), Week 83): −17.00 ± 14.11
- unadjusted change in ADCS-ADL score, Mean ± Std. Dev (Group 6 (n 3), Week 96): −26.00 ± 8.19
- unadjusted change in ADCS-ADL score, Mean ± Std. Dev (Group 6 (n 3), Week 109): 25.33 ± 14.47
- unadjusted change in ADCS-ADL score, Mean ± Std. Dev (Group 6 (n 3), Week 122): −32.67 ± 8.96
- unadjusted change in ADCS-ADL score, Mean ± Std. Dev (Group 6 (n 3), Week 135): −32.00 ± 13.75
- unadjusted change in ADCS-ADL score, Mean ± Std. Dev (Group 6 (n 3), Week 148): −34.33 ± 15.82
- favorable difference in adjusted ADCS-ADL, higher concentration arm compared with low/medium arm (MMRM-LME, over 148 weeks): 88%
- effect of higher concentrations on Delta ADCS-ADL scores (plasma concentration groups, week 57, p=0.03): improved
- ADCS-ADL Cohen's d (Absence of COMT_L146fs variant & Baseline MMSE ≥20, N 11): 0.89**
- ADCS-ADL Cohen's d (Absence of COMT_L146fs variant, N 16): 0.57*
- ADCS-ADL Cohen's d (Absence of SIGMAR1_Q2P variant, N 16): 0.43
- ADCS-ADL Cohen's d (Absence of SIGNAR1_Q2P variant & Baseline MMSE ≥20, N 11): 0.76*
- ADCS-ADL Cohen's d (All, N 21): 0.18
- ADCS-ADL Cohen's d (Baseline MMSE ≥20, N 13): 0.66*
